ChEMBL document CHEMBL3351526, “Structure-based optimization of non-peptidic Cathepsin D inhibitors” (Bioorg Med Chem Lett, 2014)
pIC50: −log10 of the molar value. Activity calls are given as the source filed them. The rule behind the calls is not given here.

Columns and labels:
Cathepsin D (Bos taurus) = target: T1, Cathepsin D (Bos taurus) (UniProt P80209); assay: Inhibition of cathepsin D in bovine cartilage explants assessed as reduction in sulphated GAGs level at <1 uM after 3 days by spectrophotometric 1,9-dimethylmethylene blue shift assay based glycosaminoglycan release method
T1 sequence (whole entry): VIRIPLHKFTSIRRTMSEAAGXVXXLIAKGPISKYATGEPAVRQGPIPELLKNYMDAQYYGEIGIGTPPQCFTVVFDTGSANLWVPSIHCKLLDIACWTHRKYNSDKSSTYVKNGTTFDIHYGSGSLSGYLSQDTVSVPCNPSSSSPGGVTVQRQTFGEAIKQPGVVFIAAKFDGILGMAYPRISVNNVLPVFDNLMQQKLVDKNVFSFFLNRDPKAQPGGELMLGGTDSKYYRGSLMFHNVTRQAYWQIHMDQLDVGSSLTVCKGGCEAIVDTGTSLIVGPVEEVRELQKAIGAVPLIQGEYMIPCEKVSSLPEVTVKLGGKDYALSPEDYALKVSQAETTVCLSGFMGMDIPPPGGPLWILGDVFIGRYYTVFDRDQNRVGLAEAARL

Cathepsin D [1] = target: T2, Cathepsin D (Homo sapiens, UniProt P07339); assay: Inhibition of human liver cathepsin D using MCA-labeled GKPILFFRLK(Dnp)-D-R-NH2 peptide by fluorescence-based assay
Renin = target: T3, Renin (Homo sapiens, UniProt P00797); assay: Inhibition of human recombinant renin using quenched Dabcyl-g-Abu-IHPFHLVIHT-Edans peptide substrate by fluorescence-based assay
T3 sequence (P00797 whole entry): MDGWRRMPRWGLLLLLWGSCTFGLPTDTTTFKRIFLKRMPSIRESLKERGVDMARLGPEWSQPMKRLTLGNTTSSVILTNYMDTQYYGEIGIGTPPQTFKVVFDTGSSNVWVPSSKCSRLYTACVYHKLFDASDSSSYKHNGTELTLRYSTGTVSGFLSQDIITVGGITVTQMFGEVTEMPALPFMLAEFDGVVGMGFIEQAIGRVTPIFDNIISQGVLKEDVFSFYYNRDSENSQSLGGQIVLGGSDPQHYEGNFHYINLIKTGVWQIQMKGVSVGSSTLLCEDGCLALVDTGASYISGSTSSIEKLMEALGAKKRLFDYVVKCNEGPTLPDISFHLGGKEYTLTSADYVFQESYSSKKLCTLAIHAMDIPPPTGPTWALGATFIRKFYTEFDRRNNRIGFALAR

Cathepsin D [2] = target: T2, Cathepsin D
[3] = Stability in mouse liver microsomes assessed as intrinsic clearance; format: ADME; details: read-out: CLH
[4] = Stability in human liver microsomes assessed as intrinsic clearance; format: ADME; details: read-out: CLH
[5] = Stability in rat liver microsomes assessed as intrinsic clearance; format: ADME; details: read-out: CLH
Cathepsin D [6] = target: T4, Cathepsin D (Bos taurus, UniProt P80209); assay: Inhibition of cathepsin D in bovine cartilage explants assessed as reduction in sulphated GAGs level after 3 days by spectrophotometric 1,9-dimethylmethylene blue shift assay based glycosaminoglycan release method
T4 sequence (P80209 whole entry): T1 sequence (whole entry)

[7] = Apparent permeability across apical to basolateral side in human Caco2 cells; format: ADME, cell-based; details: Caco-2
[8] = Inhibition of pepsin (unknown origin); design: species or system Homo sapiens

T2 sequence (P07339 65-162 limits assumed): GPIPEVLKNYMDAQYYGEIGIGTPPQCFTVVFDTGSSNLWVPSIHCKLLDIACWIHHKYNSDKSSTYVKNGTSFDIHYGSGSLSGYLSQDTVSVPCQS
T2 sequence (P07339 169-412 limits assumed): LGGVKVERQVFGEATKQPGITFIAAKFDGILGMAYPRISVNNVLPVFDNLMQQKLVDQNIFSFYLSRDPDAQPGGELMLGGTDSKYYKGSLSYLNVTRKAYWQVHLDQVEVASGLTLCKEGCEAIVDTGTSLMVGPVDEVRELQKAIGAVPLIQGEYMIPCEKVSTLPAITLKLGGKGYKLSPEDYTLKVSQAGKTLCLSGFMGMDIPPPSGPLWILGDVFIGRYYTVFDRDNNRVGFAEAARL

COc1cc(CC(=O)NC(=N)NCc2ccc(Cl)cc2)c([N+](=O)[O-])cc1OC
inhibition (Cathepsin D (Bos taurus)): inactive | pIC50 (Cathepsin D [1]): 5.82 | pIC50 (Renin): < 4.52

COc1cc(Br)c(C(=O)N[C@@H](Cc2cccc(Oc3ccccc3)c2)[C@@H](O)CN(CCc2ccc(Cl)cc2Cl)C(=O)CCN2C(=O)c3ccccc3C2=O)cc1OC
inhibition (Cathepsin D (Bos taurus)): inactive | pIC50 (Cathepsin D [2]): 7.07

COc1ccc(CNC(=N)NC(=O)Cc2cc(OC)c(OC)cc2[N+](=O)[O-])cc1OC
inhibition (Cathepsin D (Bos taurus)): inactive | pIC50 (Cathepsin D [1]): 5.57 | pIC50 (Renin): < 4.52

COc1ccc(CC(=O)NC(=N)N[C@H](CC(C)C)C(=O)NCc2ccc(-c3nnn[nH]3)cc2)cc1OC
microsomal CLint [3]: < 10 µL/min/mg | microsomal CLint [4]: 69 µL/min/mg | microsomal CLint [5]: < 10 µL/min/mg

COc1ccc(CC(=O)NC(=N)NCc2ccc(C)cc2)cc1OC
inhibition (Cathepsin D (Bos taurus)): inactive | pIC50 (Cathepsin D [1]): 5.72 | pIC50 (Renin): < 4.52

COc1cc(CNC(=O)[C@@H](CC2CCCCC2)NC(=N)NC(=O)Cc2ccc(OC)c(OC)c2)ccc1F
pIC50 (Cathepsin D [6]): 6.30 | Papp A→B [7]: 5 ×10⁻⁶ cm/s | microsomal CLint [4]: > 1000 µL/min/mg | microsomal CLint [5]: 241 µL/min/mg | pIC50 (Renin): 4.80

COc1ccc(CC(=O)NC(=N)N[C@H](CC2CCCCC2)C(=O)NCc2ccc(F)c(F)c2)cc1OC
pIC50 (Cathepsin D [1]): 6.77

COc1cc(Br)c(CC(=O)NC(=N)N[C@H](CC2CCCCC2)C(=O)NCc2cccc(-c3nnn[nH]3)c2)cc1OC
microsomal CLint [3]: 40 µL/min/mg | microsomal CLint [4]: 240 µL/min/mg | microsomal CLint [5]: 33 µL/min/mg

COc1cc(CCCC(=O)NC(=N)NCc2ccccc2)c([N+](=O)[O-])cc1OC
pIC50 (Cathepsin D [1]): 4.74 | pIC50 (Renin): < 4.52

COc1ccc(CC(=O)NC(=N)N[C@H](CC(C)C)C(=O)NCc2ccc(-c3nnn[nH]3)c(F)c2)cc1OC
microsomal CLint [4]: 54 µL/min/mg | microsomal CLint [5]: < 10 µL/min/mg

COc1cc(CNC(=O)[C@@H](CC(C)C)NC(=N)NC(=O)Cc2ccc(OC)c(OC)c2)ccc1F
pIC50 (Cathepsin D [6]): 6.21 | microsomal CLint [4]: 966 µL/min/mg | microsomal CLint [5]: 148 µL/min/mg | pIC50 (Renin): 5.06

COc1ccc(CCC(=O)NC(=N)NCc2ccccc2)cc1OC
pIC50 (Cathepsin D [1]): 4.60 | pIC50 (Renin): 4.70

COc1ccc(CC(=O)NC(=N)N[C@H](CC2CCCCC2)C(=O)NCc2ccc(-c3nnn[nH]3)cc2)cc1OC
pIC50 (Cathepsin D [6]): 5.74 | Papp A→B [7]: 0.25 ×10⁻⁶ cm/s | microsomal CLint [3]: < 10 µL/min/mg | microsomal CLint [4]: 76 µL/min/mg | microsomal CLint [5]: 38 µL/min/mg

CC(C)CC(=O)N[C@H](C(=O)N[C@H](C(=O)N[C@@H](CC(C)C)[C@@H](O)CC(=O)N[C@@H](C)C(=O)N[C@@H](CC(C)C)[C@@H](O)CC(=O)O)C(C)C)C(C)C [PEPSTATIN]
pIC50 [8]: 10.00

COc1cc(CC(=O)NC(=N)NCc2ccc(Cl)c(Cl)c2)c([N+](=O)[O-])cc1OC
inhibition (Cathepsin D (Bos taurus)): inactive | pIC50 (Cathepsin D [1]): 6.36 | pIC50 (Renin): < 4.52

COc1ccc(CNC(=O)[C@@H](CC(C)C)NC(=N)NC(=O)Cc2ccc(OC)c(OC)c2)cc1OC
microsomal CLint [4]: 262 µL/min/mg | microsomal CLint [5]: 143 µL/min/mg

COc1ccc(CC(=O)NC(=N)NCc2ccc(N)cc2)cc1OC
pIC50 (Cathepsin D [1]): 4.54 | pIC50 (Renin): < 4.52

COc1ccc(CNC(=O)[C@@H](CC2CCCCC2)NC(=N)NC(=O)Cc2ccc(OC)c(OC)c2)cc1F
pIC50 (Renin): 4.89

COc1cc(CC(=O)NC(=N)NCc2ccccc2)c([N+](=O)[O-])cc1OC
pIC50 (Cathepsin D [1]): 5.00 | pIC50 (Renin): < 4.52

COc1cc(Br)c(CC(=O)NC(=N)N[C@H](CC(C)C)C(=O)NCc2cccc(-c3nnn[nH]3)c2)cc1OC
microsomal CLint [3]: 38 µL/min/mg | microsomal CLint [4]: 107 µL/min/mg | microsomal CLint [5]: 17 µL/min/mg

COc1ccc(Cl)c(CC(=O)NC(=N)NCc2ccccc2)c1
pIC50 (Cathepsin D [1]): 5.21 | pIC50 (Renin): < 4.52

COc1cc(CNC(=O)[C@@H](CC2CCCCC2)NC(=N)NC(=O)Cc2cc(OC)c(OC)cc2Br)ccc1F
pIC50 (Cathepsin D [6]): 6.05 | microsomal CLint [4]: > 1000 µL/min/mg | microsomal CLint [5]: 823 µL/min/mg | pIC50 (Renin): < 4.52

COc1ccc(CNC(=O)[C@@H](Cc2ccccc2)NC(=N)NC(=O)Cc2ccc(OC)c(OC)c2)cc1OC
pIC50 (Cathepsin D [6]): 6.48 | microsomal CLint [4]: > 1000 µL/min/mg | microsomal CLint [5]: 384 µL/min/mg | pIC50 (Renin): < 4.52

COc1cc(CC(=O)NC(=N)NCc2ccccc2Cl)c([N+](=O)[O-])cc1OC
inhibition (Cathepsin D (Bos taurus)): inactive | pIC50 (Cathepsin D [1]): 5.52 | pIC50 (Renin): < 4.52
